# Measurements published in patent publication US20090269406A1, “Therapeutic uses of biocompatible biogel compositions” (priority 2008, published 2009).
# Peptide text beside a SMILES is read from it. * marks the point of attachment. Dansyl = CN(C)c1cccc2c(S(=O)(=O)*)cccc12
# Experiment: Effect of heparin-binding peptides on cellular viability (CellTiter 96 AQueous colorimetric metabolic assay)
# Settings: mouse, 3T3 fibroblasts
# Procedure: 3T3 fibroblasts were incubated with various doses of W-PBD1 () and dG-PBD1 (▪) peptide (n=3). Viability was measured using a colorimetric metabolic assay based on the reduction of a tetrazolium salt into a formazan product.
# In one example to show toxicity of two heparin binding peptides, 3T3 fibroblasts were treated with various concentrations of two different heparin binding peptides. Cell viability was assessed using the CellTiter 96® AQueous reagent (Promega, Madison, Wis.) after 1 hour at 37° C. in a humidified incubator with 5% CO2, following the manufacturer's protocol, incorporated by reference herein. Briefly, 3T3 fibroblasts were cultured at 37° C. in a humidified incubator with 5% CO2 using Dulbecco's modified Eagle Medium (DMEM) containing 10% fetal bovine serume (FBS), pen/strep, and 2 mM glutamine (Invitrogen). Serial dilutions of dG-PGB1 and W-PBD-1 using PBS as the diluent, and 75 μl of the dilutions were transferred in triplicate into the wells of a 96-well microtiter plate. […] Finally, the absorbance at 490 mm was measured with a microplate spectrophotometer. […] The amount of viable cells was determined by subtracting the absorbance readings of media containing blank wells from every other well and comparing the ratio of the absorbance reading for each sample with that of the positive control.
smiles,measurement,value
"CC(C)C[C@H](NC(=O)[C@H](CCCCN)NC(=O)[C@H](C)NC(=O)[C@H](Cc1ccccc1)NC(=O)[C@H](C)NC(=O)[C@H](CCCCN)NC(=O)[C@@H](N)Cc1c[nH]c2ccccc12)C(=O)N[C@@H](C)C(=O)N[C@@H](C)C(=O)N[C@@H](CCCNC(=N)N)C(=O)N[C@@H](CC(C)C)C(=O)N[C@@H](Cc1ccc(O)cc1)C(=O)N[C@@H](CCCNC(=N)N)C(=O)N[C@@H](CCCCN)C(=O)N[C@@H](C)C(=O)NCC(=O)N[C@@H](CS)C(=O)O [W-PBD1, WKAFAKLAARLYRKAGC] (H-WKAFAKLAARLYRKAGC-OH; N-terminus and C-terminus assumed)",CC50 at 1 h,58.1 ± 7.3 µM
"CC(C)C[C@H](NC(=O)[C@H](CCCCN)NC(=O)[C@H](C)NC(=O)[C@H](Cc1ccccc1)NC(=O)[C@H](C)NC(=O)[C@H](CCCCN)NC(=O)CNS(=O)(=O)c1cccc2c(N(C)C)cccc12)C(=O)N[C@@H](C)C(=O)N[C@@H](C)C(=O)N[C@@H](CCCNC(=N)N)C(=O)N[C@@H](CC(C)C)C(=O)N[C@@H](Cc1ccc(O)cc1)C(=O)N[C@@H](CCCNC(=N)N)C(=O)N[C@@H](CCCCN)C(=O)N[C@@H](C)C(=O)NCC(=O)N[C@@H](CS)C(=O)O [dG-PBD1, dansyl-GKAFAKLAARLYRKAGC] (Dansyl-GKAFAKLAARLYRKAGC-OH)",CC50 at 1 h,19.3 ± 1.1 µM
